What was measured:
[1] = system: Plasmodium falciparum 3D7; test: Infection rate in 2% culture with white LED irradiation (Example 8); format: cell-based; conditions: ALA hydrochloride 200 μM; starting infection rate 2%; 8 hours culture, white LED 15 minutes, further 8 hours
Method: (§1) A culture medium was prepared in the same manner as in Example 5 with the exception that 2 ml of a culture medium having an infection rate of 2% was used. To the thus prepared culture medium, iron (II) chloride (final concentration: 10 μM) and ALA hydrochloride (final concentration: 200 μM) were added, followed by culture for 8 hours. Thereafter, the infection rate was measured by Giemsa staining.
ALA hydrochloride was added to a final concentration of 200 μM to a culture medium that had been prepared in the same manner as in Example 7. The obtained mixture was cultured for 8 hours, and thereafter, irradiated with white LED for 15 minutes. The resultant was further cultured for 8 hours, and the infection rate was then measured by Giemsa staining.

[2] = system: Plasmodium falciparum 3D7; test: Infection rate in culture medium with high starting infection rate of 2%, 8 hours culture (Example 7); format: cell-based; conditions: ALA hydrochloride 200 μM + iron (II) chloride 10 μM; starting infection rate 2%; culture for 8 hours; nothing added: 3.1%
Method: (§2) An iron (II) chloride aqueous solution was added to 1 ml of Plasmodium falciparum 3D7 culture medium having an infection rate of 0.3% to a final concentration of 0.1, 1, 10, and 100 μM. As a control, a culture medium to which sterilized water had been added was used. Three culture media were prepared for each of the aforementioned concentrations, and a 12-well plate was used. After each culture medium had been cultured for 48 hours, the infection rate was measured by Giemsa staining. In addition, as for an ALA-added medium, an ALA chloride aqueous solution was added to the medium to a final concentration of 200 μM, and an iron (II) chloride aqueous solution was then added thereto to a final concentration of 0.1, 1, 10, and 100 μM. As described above, the culture medium was cultured for 48 hours, and the infection rate was then measured by Giemsa staining.
as §1

[3] = system: Plasmodium falciparum 3D7; test: Infection (proliferation) rate of Plasmodium falciparum 3D7 in random culture, Giemsa staining (Example 5); format: cell-based; conditions: 48 hours
Method: as §2
(§3) The infection (proliferation) rate (%) was calculated using the following formula: [(Infection rate after 48 hours−infection rate at initiation of culture)/(infection rate of control after 48 hours−infection rate at initiation of culture)]×100. It is to be noted that the infection rate at initiation of the culture was set at 0.3%.
The ratio of an increase in the infection rate caused by culture was indicated by setting a region to which neither iron nor ALA was added at 100%.

malaria parasites = conditions: cited from earlier work
[4] = system: Plasmodium falciparum 3D7; test: Infection rate of Plasmodium falciparum 3D7 in synchronized culture at the ring stage (Example 6); format: cell-based
Method: as §2, §3
According to a common method, there was prepared a Plasmodium falciparum 3D7 culture medium having an infection rate of 0.3%, which was subjected to synchronized culture at the ring stage by treating with 5% sorbitol. The infection rate was measured by the same method as that described in Example 5. The final concentration of ALA hydrochloride was set at 200 μM.

[5] = system: chloroquine-resistant malaria parasites; test: Administration to a malaria patient not responding to chloroquine (Example 3); format: in vivo, human; conditions: predetermined amount of chloroquine alone, body temperature kept around 38 degrees
Method: A predetermined amount of chloroquine was administered to a patient who developed malaria. […] They suffered from headache, vertigo and nausea, and their body temperature was kept around 38 degrees. While administering chloroquine, a single capsule of the same capsule as used in Example 1 was also administered to the patient once a day. […] After administration of the capsule for 3 days, administration was suspended.

Which infection rate [1] does the source give for Cl.NCC(=O)CCC(=O)O [ALA hydrochloride] here?
Its infection rate is 1.8%.

And the infection rate [2]?
The infection rate was 0.47%.

For NCC(=O)CCC(=O)O [ALA, 5-aminolevulinic acid], which “Infection Rate (%) by Random Culture” value ([3]; ALA 200 μM + iron (II) chloride 0.1 μM) is on record?
The value was 88%.

And the “Infection Rate (%) by Random Culture” value ([3]; ALA 200 μM + iron (II) chloride 1 μM)?
Its value is 86%.

And the “Infection Rate (%) by Random Culture” value ([3]; ALA 200 μM + iron (II) chloride 10 μM)?
Its value is 59%.

And the “Infection Rate (%) by Random Culture” value ([3]; ALA 200 μM + iron (II) chloride 100 μM)?
Its value is 57%.

What about the “Infection Rate (%) by Random Culture” value ([3]; ALA 200 μM, no iron (II) chloride) of the same compound?
Its value is 96%.

What about the “parasiticidal effect of PDT” value (malaria parasites; ALA 0.2 mM in medium, light irradiation from projector lamp of 410 W for 30 minutes) of the same compound?
Its value is “sufficient parasiticidal effect”.

What about the “ALA concentration in medium needed for PDT therapy to exhibit some effect” value (malaria parasites; illumination with ordinary indoor light) of the same compound?
The value was 2 mM.

And the “Infection Rate by Synchronized Culture (Ring Stage)” value (“Infection Rate … (Ring Stage)” below) ([4]; ALA hydrochloride 200 μM + iron (II) chloride 0.1 μM)?
Its value is 69%.

What about the “Infection Rate … (Ring Stage)” value ([4]; ALA hydrochloride 200 μM + iron (II) chloride 1 μM) of the same compound?
Its value is 58%.

What about the “Infection Rate … (Ring Stage)” value ([4]; ALA hydrochloride 200 μM + iron (II) chloride 10 μM) of the same compound?
The value was 51%.

What about the “Infection Rate … (Ring Stage)” value ([4]; ALA hydrochloride 200 μM + iron (II) chloride 100 μM) of the same compound?
Its value is 5%.

And the “Infection Rate … (Ring Stage)” value ([4]; ALA hydrochloride 200 μM, no iron (II) chloride)?
Its value is 95%.

For CCN(CC)CCCC(C)Nc1ccnc2cc(Cl)ccc12 (stereo not shown) [chloroquine], which effect on malaria [5] is on record?
The effect on malaria was “sufficient effects could not be obtained”.

Which results are given for [Cl][Fe][Cl] [iron (II) chloride, reference compound]?
Infection Rate (%) by Random Culture ([3]; without ALA, iron (II) chloride 0.1 μM, no iron/no ALA = 100%): 98%; Infection Rate (%) by Random Culture ([3]; without ALA, iron (II) chloride 1 μM, no iron/no ALA = 100%): 97%; Infection Rate (%) by Random Culture ([3]; without ALA, iron (II) chloride 10 μM, no iron/no ALA = 100%): 95%; Infection Rate (%) by Random Culture ([3]; without ALA, iron (II) chloride 100 μM, no iron/no ALA = 100%): 82%

— patent US9463175B2, “Antimalarial drug which contains 5-aminolevulinic acid or derivative thereof as active ingredient” (SBI Pharmaceuticals Co., Ltd., priority 2010, dated 2016)
